In the NIST ThermoML archive (doi:10.1016/j.jct.2018.07.014):
Numbers after ± are expanded uncertainties.

Conditions: 298.2 K; 101.33 kPa; Liquid; buoyancy

Row | Structure (SMILES) | mass density
1 | CCCOC(C)=O [propyl ethanoate] | 881.51 ± 2.9 kg/m3
2 | Cc1cc(C)cc(C)c1 [1,3,5-trimethylbenzene] | 859.7 ± 2.9 kg/m3
3 | CCCCC(C)=O [2-hexanone] | 806.37 ± 2.8 kg/m3

Same assay, conditions: 323.2 K; 101.33 kPa; Liquid; buoyancy

Row | Structure (SMILES) | mass density
4 | Cc1cccc(O)c1 [3-methylphenol] | 1009.2 ± 3.1 kg/m3
5 | Cc1ccc(O)cc1 [4-methylphenol] | 1011.3 ± 3.2 kg/m3
6 | Cc1ccccc1O [2-methylphenol] | 1018.8 ± 3.2 kg/m3
